Earlier results on 1 compound are cited in patent US20100111874A1, “METHOD OF CANCER DETECTION AND TREATMENT” (University of Medicine and Dentistry of New Jresey, priority 2007, published 2010).

The test system of the series is human colon cancer xenografts. The settings on record: combined with interferons; nude mice; cited from earlier work.

As for `CCc1c2c(nc3ccc(OC(=O)N4CCC(N5CCCCC5)CC4)cc13)-c1cc3c(c(=O)n1C2)COC(=O)[C@]3(O)CC` [CPT-11], the “anticancer activity in combination with interferons” value is given as “synergistic”.
